Assay results from the supplement of paper PMC10307832.

Experiments:
Test in all cases: relative viability (nuclei count vs DMSO), 5 days (fraction); higher = more cells survive
[1] = compound: C1=CC(=CC=C1NC(=S)NNC2=C(C=C(C=C2[N+](=O)[O-])C(F)(F)F)[N+](=O)[O-])F [Kobe2602] + O=C(c1cc(Cc2n[nH]c(=O)c3ccccc23)ccc1F)N1CCN(C(=O)C2CC2)CC1 [Olaparib] (partner 8 µM)
Summary of the method: (§1)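 Cells from lung cancer lines were seeded into 1536-well plates and, one day later, dosed by pin tool. Treatments were either a single drug or a fixed dose of an anchor drug with five library-drug doses (not always all listed) in √10 steps. After 5 days, nuclei were stained in a one-step fixation (final 0.05% Triton X-100, 1% formaldehyde, 1 ug/ml Hoechst) and counted on 4× images, and relative viability is the treated-to-vehicle nuclei ratio, as the median of duplicate plates.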

[2] = compound: COc1cc2nccc(Oc3ccc(NC(=O)C4(C(=O)Nc5ccc(F)cc5)CC4)cc3)c2cc1OC [Cabozantinib] + CC(=O)c1c(C)c2cnc(Nc3ccc(N4CCNCC4)cn3)nc2n(C2CCCC2)c1=O [Palbociclib] (partner 0.5 µM)
Summary of the method: as §1

[3] = compound: COc1cc2nccc(Oc3ccc(NC(=O)C4(C(=O)Nc5ccc(F)cc5)CC4)cc3)c2cc1OC [Cabozantinib] + COc1cc2c(Oc3ccc(NC(=O)C4(C(=O)Nc5ccc(F)cc5)CC4)cc3F)ccnc2cc1OCCCN1CCOCC1 [Foretinib] (partner 0.25 µM)
Summary of the method: as §1

[4] = compound: O[C@@H](COc1cccc2ncccc12)CN1CCN([C@@H]2c3ccccc3[C@@H]3[C@H](c4ccccc42)C3(F)F)CC1 [Zosuquidar] + Nc1ncn([C@H]2C[C@H](O)[C@@H](CO)O2)c(=O)n1 [Decitabine] (partner 2 µM)
Summary of the method: as §1

Cell Line | relative viability ([1]; first compound 0.2 µM) | relative viability ([1]; first compound 0.6325 µM) | relative viability ([1]; first compound 2 µM) | relative viability ([1]; first compound 20 µM) | relative viability ([2]; first compound 0.02 µM) | relative viability ([2]; first compound 0.06325 µM) | relative viability ([2]; first compound 0.2 µM) | relative viability ([2]; first compound 0.6325 µM) | relative viability ([2]; first compound 2 µM) | relative viability ([3]; first compound 0.02 µM) | relative viability ([3]; first compound 0.06325 µM) | relative viability ([3]; first compound 0.2 µM) | relative viability ([3]; first compound 0.6325 µM) | relative viability ([3]; first compound 2 µM) | relative viability ([4]; first compound 0.01 µM) | relative viability ([4]; first compound 0.03162 µM) | relative viability ([4]; first compound 0.3162 µM) | relative viability ([4]; first compound 1 µM) | relative viability ([1]; first compound 6.325 µM) | relative viability ([4]; first compound 0.1 µM)
NCI-H727 | 0.748 | 0.678 | 0.847 | 0.736 | 0.648 | 0.689 | 0.577 | 0.62 | 0.616 | 0.675 | 1.06 | 1.08 | 0.818 | 0.889 | 0.823 | 0.906 | 0.794 | 0.887 | – | –
NCI-H838 | 0.733 | 0.779 | 0.759 | 0.764 | 0.216 | 0.244 | 0.231 | 0.218 | 0.21 | 1.13 | 1.08 | 1.04 | 1.02 | 1.01 | 0.488 | 0.49 | 0.496 | 0.502 | 0.725 | 0.486
NCI-H1355 | 0.742 | 0.747 | 0.712 | 0.601 | 0.423 | 0.448 | 0.389 | 0.371 | 0.379 | 1.08 | 1.1 | 1.03 | 1.08 | 0.949 | 0.388 | 0.393 | 0.382 | 0.401 | 0.727 | 0.355
NCI-H1395 | 0.447 | 0.487 | 0.463 | 0.486 | 0.631 | 0.79 | 0.626 | 0.642 | 0.54 | 0.93 | 1.17 | 1.07 | 1.06 | 0.932 | 0.707 | 0.765 | 0.765 | 0.773 | 0.535 | –
NCI-H1437 | 0.666 | 0.632 | 0.6 | 0.475 | 0.312 | 0.339 | 0.296 | 0.344 | 0.302 | 1.29 | 1.37 | 1.29 | 1.27 | 1.21 | 0.567 | 0.561 | 0.56 | 0.592 | 0.562 | 0.644
NCI-H1650 | 0.844 | 0.891 | 0.819 | 0.8 | 0.361 | 0.301 | 0.27 | 0.36 | 0.486 | 1.31 | 1.48 | 1.02 | 1.27 | 0.978 | 0.451 | 0.439 | 0.398 | 0.378 | 0.868 | 0.553
NCI-H1651 | 0.186 | 0.165 | 0.189 | 0.193 | 0.512 | 0.561 | 0.52 | 0.495 | 0.495 | 1 | 0.739 | 1.05 | 0.875 | 0.783 | 0.644 | 0.685 | 0.617 | 0.588 | 0.19 | 0.483
NCI-H1666 | 0.717 | 0.741 | 0.829 | 0.805 | 0.642 | 0.658 | 0.664 | 0.662 | 0.642 | 1.04 | 1.06 | 0.99 | 0.949 | 0.981 | 0.766 | 0.788 | 0.789 | 0.678 | 0.774 | 0.671
NCI-H1734 | 0.601 | 0.626 | 0.635 | 0.665 | 0.4 | 0.339 | 0.381 | 0.389 | 0.325 | 0.916 | 0.864 | 0.878 | 0.858 | 0.769 | 0.522 | 0.537 | 0.456 | 0.565 | 0.642 | 0.525
NCI-H1755 | 0.848 | 0.893 | 0.87 | 0.915 | 0.471 | 0.454 | 0.461 | 0.43 | 0.446 | 0.911 | 1.01 | 0.92 | 0.917 | 0.856 | 0.672 | 0.663 | 0.728 | 0.708 | 0.853 | 0.716
NCI-H1793 | 0.91 | 0.852 | 0.744 | 0.977 | 0.338 | 0.313 | – | 0.277 | 0.252 | 0.738 | 1.07 | 0.645 | 0.678 | 0.617 | 0.536 | – | 0.648 | 0.488 | 0.883 | –
NCI-H1915 | 0.275 | 0.251 | 0.246 | 0.307 | 0.584 | 0.57 | 0.518 | 0.506 | 0.55 | 1.17 | 1.14 | 1.08 | 1.07 | 1.13 | 0.278 | 0.252 | 0.288 | 0.269 | 0.269 | 0.279
NCI-H1944 | 0.475 | 0.385 | 0.403 | 0.403 | 0.357 | 0.315 | 0.317 | 0.299 | 0.349 | 1.04 | 0.938 | 0.9 | 0.895 | 0.867 | 0.365 | 0.454 | 0.453 | 0.439 | 0.432 | 0.469
NCI-H1975 | 0.763 | 0.78 | 0.766 | 0.755 | 0.533 | 0.777 | 0.647 | 0.418 | 0.557 | 1.04 | 1.01 | 1.1 | 0.89 | 0.849 | 0.4 | 0.402 | 0.411 | 0.547 | 0.722 | 0.423
NCI-H1993 | 0.853 | 1.07 | 0.922 | 1.26 | 0.661 | 0.537 | 0.461 | 0.571 | 0.437 | 0.807 | 0.74 | 0.649 | 0.745 | 0.735 | 0.609 | 0.615 | 0.583 | 0.546 | 0.918 | –
